Assay results reported in ChEMBL document CHEMBL3808317, “Straightforward conversion of decoquinate into inexpensive tractable new derivatives with significant antimalarial activities” (Bioorg Med Chem Lett, 2016).
≈ marks a conversion by molar mass, not a printed value. Calls of active or inactive are those of the source. The calls are words filed in the database; no cut-off is given here.

How the values were obtained:
[1] = Cytotoxicity against human WI38 cells assessed as growth inhibition after 48 hrs by sulforhodamine B assay; format: cell-based; settings: WI-38, 48 h
Plasmodium falciparum [2] = assay: Antimalarial activity against chloroquine-sensitive asexual Plasmodium falciparum NF54 infected in human erythrocytes assessed as inhibition of parasite proliferation after 96 hrs by SYBR Green I fluorescence based assay; format: functional, organism-based; settings: NF54, 96 h
Plasmodium falciparum [3] = assay: Antimalarial activity against multidrug resistant Plasmodium falciparum W2 infected in human erythrocytes assessed as inhibition of parasite proliferation after 96 hrs by SYBR Green I fluorescence based assay; format: functional, organism-based; settings: W2, 96 h
[4] = Selectivity index, ratio of IC50 for human WI38 cells to IC50 chloroquine-sensitive asexual Plasmodium falciparum NF54 infected in human erythrocytes; format: toxicity, cell-based, WI-38; settings: read-out: Ratio IC50
Plasmodium falciparum [5] = assay: Antimalarial activity against multidrug resistant Plasmodium falciparum K1 infected in human erythrocytes assessed as inhibition of parasite proliferation after 96 hrs by SYBR Green I fluorescence based assay; format: functional, organism-based; settings: K1, 96 h
Plasmodium falciparum [6] = assay: Antimalarial activity against chloroquine-sensitive asexual Plasmodium falciparum NF54 infected in human erythrocytes assessed as inhibition of parasite proliferation at 5 uM after 96 hrs by SYBR Green I fluorescence based assay relative to control; format: functional; settings: NF54, 96 h
Plasmodium falciparum [7] = assay: Antimalarial activity against chloroquine-sensitive asexual Plasmodium falciparum NF54 infected in human erythrocytes assessed as inhibition of parasite proliferation at 100 to 500 nM after 96 hrs by SYBR Green I fluorescence based assay; format: functional, organism-based
[8] = Resistance index, ratio of IC50 for multi-drug-resistant Plasmodium falciparum K1 infected in human erythrocytes to IC50 for chloroquine-sensitive asexual Plasmodium falciparum NF54 infected in human erythrocytes; format: functional
[9] = Resistance index, ratio of IC50 for multi-drug-resistant Plasmodium falciparum W2 infected in human erythrocytes to IC50 for chloroquine-sensitive asexual Plasmodium falciparum NF54 infected in human erythrocytes; format: functional
Plasmodium falciparum [10] = assay: Antimalarial activity against chloroquine-sensitive asexual Plasmodium falciparum NF54 infected in human erythrocytes assessed as inhibition of parasite proliferation at 1 uM after 96 hrs by SYBR Green I fluorescence based assay relative to control; format: functional; settings: NF54, 96 h
[11] = Acidic dissociation constant, pKa of compound; format: physicochemical
[12] = Solubility of compound in water; format: physicochemical
[13] = Lipophilicity, log P of compound; format: physicochemical; settings: octanol/water

Row | Structure (SMILES) | IC50 [1] | IC50 (Plasmodium falciparum [2]) | IC50 (Plasmodium falciparum [3]) | selectivity ratio [4] | IC50 (Plasmodium falciparum [5]) | inhibition at 5 µM (Plasmodium falciparum [6]) | inhibition (Plasmodium falciparum [7]) | Ratio IC50 [8] | Ratio IC50 [9] | inhibition at 1 µM (Plasmodium falciparum [10]) | pKa [11] | solubility [12] | logP [13]
1 | CCCCCCCCCCOc1cc2c(=O)c(C(=O)NCCOCCO)c[nH]c2cc1OCC | 43900 nM | 40.4 nM | 18.5 nM | 1090 | 64.8 nM | > 50% | Active | 1.6 | 0.5 | > 70% | – | – | –
2 | CCCCCCCCCCOc1cc2c(=O)c(C(=O)NCCCn3ccnc3)c[nH]c2cc1OCC | – | – | – | – | – | > 50% | – | – | – | > 70% | – | – | –
3 | CCCCCCCCCCOc1cc2c(=O)c(C(=O)OCC)cn(C(=O)CC)c2cc1OCC | > 100000 nM | 15.4 nM | 11.5 nM | > 6490 | 48.9 nM | > 50% | Active | 3.2 | 0.8 | > 70% | – | – | –
4 | CCCCCCCCCCOc1cc2c(=O)c(C(=O)N3CCOCC3)cn(S(=O)(=O)C3CC3)c2cc1OCC | – | – | – | – | – | > 50% | – | – | – | > 70% | – | – | –
5 | CCCCCCCCCCOc1cc2c(=O)c(C(=O)OCC)cn(S(=O)(=O)C3CC3)c2cc1OCC | – | – | – | – | – | > 50% | – | – | – | > 70% | – | – | –
6 | CCCCCCCCCCOc1cc2c(=O)c(C(=O)OCC)cn(S(C)(=O)=O)c2cc1OCC | – | – | – | – | – | > 50% | – | – | – | > 70% | – | – | –
7 | CCCCCCCCCCOc1cc2c(=O)c(C(=O)NCc3ccc(F)cc3)c[nH]c2cc1OCC | > 100000 nM | 33.1 nM | 8.6 nM | > 3020 | 63.1 nM | > 50% | Active | 1.9 | 0.2 | > 70% | – | – | –
8 | CCCCCCCCCCOc1cc2c(O)c(C(=O)OCC)cnc2cc1OCC [DECOQUINATE] | > 100000 nM | 26.6 nM | 15.4 nM | > 3760 | 64.9 nM | > 50% | Active | 2.4 | 0.6 | > 70% | 9.81 | 0.06 µg/mL (≈ 0.144 µM) | 8.19
9 | CCCCCCCCCCOc1cc2c(=O)c(C(=O)NCc3ccccc3F)c[nH]c2cc1OCC | – | – | – | – | – | > 50% | – | – | – | > 70% | – | – | –
10 | CCCCCCCCCCOc1cc2c(=O)c(C(=O)OCC)cn(C(C)=O)c2cc1OCC | > 100000 nM | 4.9 nM | 8.5 nM | > 20400 | 12 nM | > 50% | Active | 2.5 | 1.7 | > 70% | – | – | –
11 | CCCCCCCCCCOc1cc2c(=O)c(C(=O)NCc3ccco3)c[nH]c2cc1OCC | – | – | – | – | – | > 50% | – | – | – | > 70% | – | – | –
12 | CCCCCCCCCCOc1cc2c(=O)c(C(=O)OCC)cn(C(=O)N(C)C)c2cc1OCC | – | – | – | – | – | > 50% | – | – | – | > 70% | – | – | –
13 | CCCCCCCCCCOc1cc2c(=O)c(C(=O)NCCOC)c[nH]c2cc1OCC | – | – | – | – | – | > 50% | – | – | – | > 70% | – | – | –
14 | CO[C@H]1O[C@@H]2O[C@@]3(C)CC[C@H]4[C@H](C)CC[C@@H]([C@H]1C)[C@@]24OO3 [ARTEMETHER] | – | 5.77 nM | 4.5 nM | – | 7.26 nM | – | – | 1.3 | 0.8 | – | – | – | –
15 | CCCCCCCCCCOc1cc2c(=O)c(C(=O)N3CCOCC3)cn(C(C)=O)c2cc1OCC | – | – | – | – | – | > 50% | – | – | – | > 70% | – | – | –
16 | CCCCCCCCCCOc1cc2c(=O)c(C(=O)NCCN(C)C)c[nH]c2cc1OCC | – | – | – | – | – | > 50% | – | – | – | > 70% | – | – | –
17 | CC[C@H]1CN2CCc3cc(OC)c(OC)cc3[C@@H]2C[C@@H]1C[C@H]1NCCc2cc(OC)c(OC)cc21 [EMETINE] | 50 nM | – | – | – | – | – | – | – | – | – | – | – | –
18 | CCCCCCCCCCOc1cc2c(=O)c(C(=O)OCC)cn(C(=O)N3CCCCC3)c2cc1OCC | 8500 nM | 18.3 nM | 28.2 nM | 465 | 89.1 nM | > 50% | Active | 4.9 | 1.5 | > 70% | – | – | –
19 | C[C@H]1[C@H](OC(=O)CCC(=O)O)O[C@@H]2O[C@@]3(C)CC[C@H]4[C@H](C)CC[C@@H]1[C@@]24OO3 [ARTESUNATE] | > 100000 nM | 7.88 nM | 6.77 nM | > 12700 | 8.97 nM | – | – | 1.4 | 0.8 | – | – | – | –
